Results taken from patent US11051515B2, “3-acyl-benzamides and their use as herbicides” (Bayer Aktiengesellschaft, priority 2017, dated 2021).

How the values were obtained:
ALOMY [1] = test: Pre-emergence action against ALOMY; type: in vivo, Alopecurus myosuroides; settings: dosage 320 g/ha, pre-emergence, scored visually after 3 weeks vs untreated controls, 100% = plants have died, 0% = like control plants
Summary of the method: (§1)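 Seeds sown in sandy loam in wood-fiber pots and covered with soil. Greenhouse growth; visual damage scored after 3 weeks versus untreated controls (100% = dead, 0% = like control).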

AVEFA [2] = test: Pre-emergence action against AVEFA; type: in vivo, Avena fatua; settings: dosage 320 g/ha, scored visually after 3 weeks vs untreated controls
Summary of the method: as §1

DIGSA [3] = test: Pre-emergence action against DIGSA; type: in vivo, Digitaria sanguinalis; settings: dosage 320 g/ha, scored visually after 3 weeks vs untreated controls
Summary of the method: as §1

ECHCG [4] = test: Pre-emergence action against ECHCG; type: in vivo, Echinochloa crus-galli; settings: pre-emergence, dosage 320 g/ha, scored visually after 3 weeks vs untreated controls
Summary of the method: as §1

LOLRI = test: Pre-emergence action against LOLRI; type: in vivo, Lolium rigidum; settings: dosage 320 g/ha, scored visually after 3 weeks vs untreated controls
Summary of the method: as §1

SETVI [5] = test: Pre-emergence action against SETVI; type: in vivo, Setaria viridis; settings: pre-emergence, dosage 320 g/ha, scored visually after 3 weeks vs untreated controls
Summary of the method: as §1

ABUTH [6] = test: Pre-emergence action against ABUTH; type: in vivo, Abutilon theophrasti; settings: pre-emergence, dosage 320 g/ha, scored visually after 3 weeks vs untreated controls
Summary of the method: as §1

AMARE [7] = test: Pre-emergence action against AMARE; type: in vivo, Amaranthus retroflexus; settings: pre-emergence, dosage 320 g/ha, scored visually after 3 weeks vs untreated controls
Summary of the method: as §1

MATIN [8] = test: Pre-emergence action against MATIN; type: in vivo, Matricaria inodora; settings: Dosage 320 g/ha, pre-emergence
Summary of the method: as §1

PHBPU [9] = test: Pre-emergence action against PHBPU; type: in vivo, Pharbitis purpurea; settings: Dosage 320 g/ha, pre-emergence
Summary of the method: as §1

STEME [10] = test: Pre-emergence action against STEME; type: in vivo, Stellaria media; settings: Dosage 320 g/ha, pre-emergence
Summary of the method: as §1

VIOTR [11] = test: Pre-emergence action against VIOTR; type: in vivo, Viola tricolor; settings: Dosage 320 g/ha, pre-emergence
Summary of the method: as §1

VERPE [12] = test: Pre-emergence action against VERPE; type: in vivo, Veronica persica; settings: Dosage 320 g/ha, pre-emergence
Summary of the method: as §1

ALOMY [13] = test: Post-emergence action against ALOMY; type: in vivo, Alopecurus myosuroides; settings: Dosage 80 g/ha, post-emergence
Summary of the method: (§2)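 Weeds grown in sandy loam in greenhouse, treated at one-leaf stage (2–3 weeks after sowing) with WP or EC formulations sprayed as aqueous suspension/emulsion at 600 to […] water with 0.2% wetting agent. Visual rating after about 3 weeks versus untreated controls, as % herbicidal action (100% = plants dead, 0% = like control).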

AVEFA [14] = test: Post-emergence action against AVEFA; type: in vivo, Avena fatua; settings: post-emergence, dosage 80 g/ha, visual assessment about 3 weeks after treatment vs untreated controls
Summary of the method: as §2

DIGSA [15] = test: Post-emergence action against DIGSA; type: in vivo, Digitaria sanguinalis; settings: dosage 80 g/ha, visual assessment about 3 weeks after treatment vs untreated controls
Procedure: Seeds of monocotyledonous and dicotyledonous weed and crop plants are laid out in sandy loam soil in wood-fiber pots, covered with soil and cultivated in a greenhouse under good growth conditions. 2 to 3 weeks after sowing, the test plants are treated at the one-leaf stage. The compounds of the invention, formulated in the form of wettable powders (WP) or as emulsion concentrates (EC), are then sprayed onto the green parts of the plants in the form of an aqueous suspension or emulsion at a water application rate equating to […], with addition of 0.2% wetting agent. After the test plants have been left to stand in the greenhouse under optimal growth conditions for about 3 weeks, the action of the preparations is assessed visually in comparison to untreated controls (herbicidal action in percent (%): 100% activity=the plants have died, 0% activity=like control plants). […] At the same time, inventive compounds leave Gramineae crops such as barley, wheat, rye, millet/Sorghum, corn or rice virtually undamaged when applied post-emergence, even at high active ingredient dosages. In addition, some substances are also harmless to dicotyledonous crops such as soya, cotton, oilseed rape, sugar beet or potatoes. Some of the compounds according to the invention have high selectivity and are therefore suitable for controlling unwanted vegetation in agricultural crops by the post-emergence method. The data of Tables B18 to B34 below illustrate, in an exemplary manner, the […] herbicidal action of the compounds according to the invention, the herbicidal activity being stated in percent.

ECHCG [16] = test: Post-emergence action against ECHCG; type: in vivo, Echinochloa crus-galli; settings: post-emergence, dosage 80 g/ha, visual assessment about 3 weeks after treatment vs untreated controls
Summary of the method: as §2

SETVI [17] = test: Post-emergence action against SETVI; type: in vivo, Setaria viridis; settings: post-emergence, dosage 80 g/ha, visual assessment about 3 weeks after treatment vs untreated controls
Summary of the method: as §2

ABUTH [18] = test: Post-emergence action against ABUTH; type: in vivo, Abutilon theophrasti; settings: post-emergence, dosage 80 g/ha, visual assessment about 3 weeks after treatment vs untreated controls
Summary of the method: as §2

AMARE [19] = test: Post-emergence action against AMARE; type: in vivo, Amaranthus retroflexus; settings: post-emergence, dosage 80 g/ha, visual assessment about 3 weeks after treatment vs untreated controls
Summary of the method: as §2

MATIN [20] = test: Post-emergence action against MATIN; type: in vivo, Matricaria inodora; settings: post-emergence, dosage 80 g/ha, visual assessment about 3 weeks after treatment vs untreated controls
Summary of the method: as §2

PHBPU [21] = test: Post-emergence action against PHBPU; type: in vivo, Pharbitis purpurea; settings: post-emergence, dosage 80 g/ha
Summary of the method: as §2

STEME [22] = test: Post-emergence action against STEME; type: in vivo, Stellaria media; settings: post-emergence, dosage 80 g/ha
Summary of the method: as §2

VIOTR [23] = test: Post-emergence action against VIOTR; type: in vivo, Viola tricolor; settings: post-emergence, dosage 80 g/ha
Summary of the method: as §2

VERPE [24] = test: Post-emergence action against VERPE; type: in vivo, Veronica persica; settings: dosage 80 g/ha
Summary of the method: as §2

POLCO = test: Pre-emergence action against POLCO; type: in vivo, Polygonum convolvulus; settings: Fallopia convolvulus, 504 h; Dosage 320 g/ha, pre-emergence
Summary of the method: as §1

HORMU = test: Pre-emergence action against HORMU; type: in vivo, Hordeum murinum; settings: Hordeum murinum, 504 h, Dosage 320 g/ha
Summary of the method: as §1

Compound: Cc1c(C(=O)Nc2nnnn2C)ccc(C(F)(F)F)c1C(=O)CCl [1-22]
- Pre-emergence action against ALOMY (herbicidal activity in percent) (ALOMY [1]): 90%
- Pre-emergence action against AVEFA (herbicidal activity) (AVEFA [2]): 100%
- Pre-emergence action against DIGSA (herbicidal activity) (DIGSA [3]): 100%
- Pre-emergence action against ECHCG (herbicidal activity) (ECHCG [4]): 100%
- Pre-emergence action against LOLRI (herbicidal activity) (LOLRI): 100%
- SETVI (Table B8, pre-emergence herbicidal activity) (SETVI [5]): 100%
- Pre-emergence action against ABUTH (herbicidal activity) (ABUTH [6]): 100%
- Pre-emergence action against AMARE (herbicidal activity) (AMARE [7]): 100%
- Pre-emergence action against MATIN (MATIN [8]): 100%
- Pre-emergence action against PHBPU (PHBPU [9]): 90%
- Pre-emergence action against STEME (STEME [10]): 100%
- Pre-emergence action against VIOTR (VIOTR [11]): 100%
- Pre-emergence action against VERPE (VERPE [12]): 100%
- Post-emergence action against ALOMY (ALOMY [13]): 90%
- Post-emergence action against AVEFA (herbicidal action in percent) (AVEFA [14]): 90%
- Post-emergence action against DIGSA (herbicidal action in percent) (DIGSA [15]): 100%
- Post-emergence action against ECHCG (herbicidal action in percent) (ECHCG [16]): 90%
- Post-emergence action against SETVI (herbicidal action in percent) (SETVI [17]): 90%
- Post-emergence action against ABUTH (herbicidal action in percent) (ABUTH [18]): 90%
- Post-emergence action against AMARE (herbicidal action in percent) (AMARE [19]): 90%
- Post-emergence action against MATIN (herbicidal action in percent) (MATIN [20]): 90%
- Post-emergence action against PHBPU (PHBPU [21]): 90
- Post-emergence action against STEME (STEME [22]): 90
- Post-emergence action against VIOTR (VIOTR [23]): 90
- Post-emergence action against VERPE (VERPE [24]): 80

Compound: CC(=O)C(=O)c1c(C(F)(F)F)ccc(C(=O)Nc2nnnn2C)c1Cl [1-146]
- pest or weed control at 320 g/ha (ALOMY [1]; Alopecurus myosuroides, 504 h, read-out: Pre-emergence action against ALOMY (herbicidal activity in percent)): 90%
- pest or weed control at 320 g/ha (AVEFA [2]; Avena fatua, 504 h, read-out: Pre-emergence action against AVEFA (herbicidal activity)): 90%
- Pre-emergence action against DIGSA (herbicidal activity) (DIGSA [3]): 100%
- pest or weed control at 320 g/ha (ECHCG [4]; Echinochloa crus-galli, 504 h, read-out: Pre-emergence action against ECHCG (herbicidal activity)): 100%
- pest or weed control at 320 g/ha (SETVI [5]; Setaria viridis, 504 h, read-out: SETVI (Table B8, pre-emergence herbicidal activity)): 100%
- pest or weed control at 320 g/ha (ABUTH [6]; Abutilon theophrasti, 504 h, read-out: Pre-emergence action against ABUTH (herbicidal activity)): 100%
- pest or weed control at 320 g/ha (AMARE [7]; Amaranthus retroflexus, 504 h, read-out: Pre-emergence action against AMARE (herbicidal activity)): 100%
- pest or weed control at 320 g/ha (MATIN [8]; Tripleurospermum inodorum, 504 h): 100%
- pest or weed control at 320 g/ha (PHBPU [9]; Ipomoea purpurea, 504 h): 90%
- pest or weed control at 320 g/ha (POLCO): 80%
- pest or weed control at 320 g/ha (STEME [10]; Stellaria media, 504 h): 100%
- pest or weed control at 320 g/ha (VIOTR [11]; Viola tricolor, 504 h): 100%
- pest or weed control at 320 g/ha (VERPE [12]; Veronica persica, 504 h): 90%
- pest or weed control at 320 g/ha (HORMU): 80%
- Post-emergence action against DIGSA (herbicidal action in percent) (DIGSA [15]): 80%
- pest or weed control at 80 g/ha (ECHCG [16]; Echinochloa crus-galli, 504 h, read-out: Post-emergence action against ECHCG (herbicidal action in percent)): 100%
- pest or weed control at 80 g/ha (SETVI [17]; Setaria viridis, 504 h, read-out: Post-emergence action against SETVI (herbicidal action in percent)): 100%
- pest or weed control at 80 g/ha (ABUTH [18]; Abutilon theophrasti, 504 h, read-out: Post-emergence action against ABUTH (herbicidal action in percent)): 100%
- pest or weed control at 80 g/ha (AMARE [19]; Amaranthus retroflexus, 504 h, read-out: Post-emergence action against AMARE (herbicidal action in percent)): 100%
- pest or weed control at 80 g/ha (MATIN [20]; Tripleurospermum inodorum, 504 h, read-out: Post-emergence action against MATIN (herbicidal action in percent)): 90%
- pest or weed control at 80 g/ha (PHBPU [21]; Ipomoea purpurea, 504 h): 80%
- pest or weed control at 80 g/ha (STEME [22]; Stellaria media, 504 h): 100%
- pest or weed control at 80 g/ha (VIOTR [23]; Viola tricolor, 504 h): 90%
- pest or weed control at 80 g/ha (VERPE [24]; Veronica persica, 504 h): 90%
